In US11752111B2, “Use of cannabidivarin in the treatment of autism spectrum disorder, associated disorders and schizophrenia” (GW Research Limited, priority 2016, dated 2023):

Tests used:
[1] = system: VPA-exposed rats; experiment: Sociability and preference for social novelty, 3-chamber apparatus, prenatal VPA model; type: in vivo, rat
Protocol: (§1) Pregnant Sprague-Dawley rats (Charles River, Calco, Italy), received a single intraperitoneal injection of 500 mg/kg sodium valproate on the 12.5 day after conception, and control females were injected with physiological saline at the same time. Sodium valproate (Sigma Aldrich, Milan, IT) was dissolved in saline at a concentration of 250 mg/ml.
CBDV was dissolved in ethanol, cremophor and saline (1:1:18). Symptomatic treatment with CBDV at doses of 0.2, 2, 20, and 100 mg/kg/day i.p. was performed starting from PND 34 (early adolescence) till 56 (early adulthood), both in male and female offspring of dams injected with VPA 500 mg/kg (or vehicle) on day 12.5 after conception. At PND 56, a series of behavioural tests was performed in order to assess the effect of chronic CBDV on sociability, social novelty, short-term memory, locomotion and stereotyped/repetitive behaviours.
Sociability and preference for social novelty: These behaviours were investigated in a 3-chamber apparatus which allows for the measurement of social approach and social preference. In brief, animals were placed into a novel arena (80 cm×31.5 cm) composed of three communicating chambers separated by Perspex walls with central openings allowing access to all chambers for 5 min.
Following this acclimatisation period, animals were briefly confined to the central chamber while an unfamiliar rat confined in a small wire cage was placed in one of the outer chambers. An identical empty wire cage was placed in the other chamber. The unfamiliar rat was randomly assigned to either the right or left chamber of the arena. The test animal was then allowed to explore the arena/chambers for a further 5 min. Time spent engaging in investigatory behaviour with the rat was evaluated with the aid of Anymaze program (Ugo Basile, Italy) in order to examine social approach.
To investigate the preference for social novelty, a novel unfamiliar rat was then placed in the empty cage and the test animal was then allowed to explore the arena/chambers for a further 5 min. Time spent engaging in investigatory behaviour with the novel unfamiliar rat was evaluated with the aid of Anymaze program (Ugo Basile, Italy) in order to examine preference for social novelty.

[2] = system: VPA-exposed rats; experiment: Short-term memory, novel object recognition test, prenatal VPA model; type: in vivo, rat
Protocol: as §1
CBDV was dissolved in ethanol, cremophor and saline (1:1:18). Symptomatic treatment with CBDV at doses of 0.2, 2, 20, and 100 mg/kg/day i.p. was performed starting from PND 34 (early adolescence) till 56 (early adulthood), both in male and female offspring of dams injected with VPA 500 mg/kg (or vehicle) on day 12.5 after conception. […]
Short-term memory: The experimental apparatus used for the object recognition test was an open-field box (43×43×32 cm) made of Plexiglas, placed in a dimly illuminated room. The experiment was performed and analysed as previously described (Zamberletti et al, 2014). […]
Each animal was placed in the arena and allowed to explore two identical previously unseen objects for 5 minutes (familiarization phase). […] During the test phase the time spent exploring the familiar object (Ef) and the new object (En) was videotaped and recorded separately by two observers blind to the treatment groups and the discrimination index was calculated as follows: [(En−Ef)/(En+Ef)]×100.

[3] = system: Ube3am-/p+ (AS) mice; experiment: Rotarod test in Angelman syndrome model; type: in vivo, mouse; settings: CBDV 20 mg/kg i.p. chronic treatment (30 days); AS mice vs AS vehicle
Protocol: Heterozygous mice with maternal deficiency of Ube3A (Ube3am−/p+) and wild type (Ube3am+/p+) were purchased from The Jackson Laboratory (Jackson code: B6.129S7-Ube3a tm1Alb/J) and maintained in a C57BL/6 background.
Drugs were dissolved in 1:1:18 ethanol:cremophor:0.9% saline, for intraperitoneal (i.p.) administration. Drug treatment was performed daily for 35 days. CBDV was administered at 20 mg/kg.
Rotarod: The rotarod test assesses balance and motor coordination of mice. Mice have been measured for the time (in seconds) of equilibrium before falling on a rotary cylinder by a magnet that, activated from the fall of the mouse on the plate, allows to record the time of permanence on the cylinder. […] The animals were analysed by 2 separate tests at 1-h interval in the same day.

[4] = system: PCP-treated rats; experiment: Social interaction test, sub-chronic PCP model of schizophrenia; type: in vivo, rat
Protocol: Female hooded-Lister rats were used for this experiment. Rats were housed in groups of 5 under standard laboratory conditions under a 12 hr light: dark cycle, lights on at 0700 hr. Testing was carried out in the light phase.
Rats were randomly assigned to two treatment groups and treated with vehicle, n=20 (distilled water, i.p.) or Phencyclidine hydrochloride (PCP), n=100 (2 mg/kg, i.p. twice daily for 7-days). PCP was dissolved in distilled water. This was followed by a 7-day wash out period before the rats were tested following acute treatment with CBDV, risperidone or vehicle.
Risperidone (0.1 mg/kg) was dissolved in a minimum volume of acetic acid, made up to volume with distilled water and pH adjusted to 6 with 0.1M NaOH and administered via the i.p. route in a volume of 1 ml/kg, 60 min prior to testing.
CBDV at 2, 10 or 20 mg/kg was dissolved in 2:1:17 (Ethanol:Cremofor:Saline 0.9%) and administered via the i.p. route in a volume of 5 ml/kg, 60 min prior to testing.
The social interaction test is performed in an open-field comprising a square box made of Plexiglas (52×52×31 cm) placed 27 cm above the floor on a moveable trolley. The floor of the box is white with black gridlines forming 9 identical squares on it. All other walls are black. A video camera connected to a video recorder and monitor is positioned above the box. The object used for the test consists of a heavy structure made of metal that cannot be displaced by the animals.
The rats were habituated to the test environment and arena prior to the test day. Habituation consists of placing all rats from one cage together in the empty test arena for one hour for three days including the day before the test day.
Pairs of rats, weight matched (15-20 g) and unfamiliar to each other, receiving either no treatment (n=70 “conspecific” rats) or different treatments (PCP and Vehicle; n=10 “tested” rats or PCP+Drug; n=50 “tested” rats) were placed in the test arena together for 10 min and behaviour assessed as described below.
An inanimate object such as an unopened drinks can is also placed in the centre of the arena to measure any differences in interaction of the test animal with an unfamiliar animal as opposed to an unfamiliar object. After each 10 minute trial, the object and arena are cleaned with 10% alcohol in an attempt to remove traces of any olfactory cues. All testing is carried out under standard room illumination levels (70 cd/m2).
Behaviour in both trials was recorded on video for subsequent blind scoring. A behavioural scoring software program (Hindsight, Scientific programming services) is used to score the following parameters: • Investigative sniffing behaviour: sniffing the conspecific's snout or parts of the body including the anogenital region; • Following: rat moves after the conspecific i.e. a vehicle treated rat of the same species, around the arena; • Avoidances: actively turning away when approached by the conspecific animal; • Investigation of object: exploration of object placed in centre of the arena; and • Locomotor activity is recorded by counting the total number of sectors (i.e. lines) crossed by the test rat. Results

## C=C(C)[C@@H]1CCC(C)=C[C@H]1c1c(O)cc(CCC)cc1O [CBDV, Cannabidivarin]
[1]; CBDV 20 mg/kg/day i.p. PND 34-56, VPA offspring, p<0.001 in males, p<0.01 in females
  restoration of social novelty preference (FIG. 1A): statistically significant effect
[1]; VPA-CBDV animals, VPA alone about 48%
  reduction of preference index compared to controls: about 13%
[1]; all doses (0.2, 2, 20, 100 mg/kg/day i.p.), VPA rats
  impairment in sociability (FIG. 1B): significantly reduced the impairment in sociability
[1]; doses of 20 mg/kg and 100 mg/kg, VPA rats
  deficit in social preference (FIG. 1C), time exploring novel vs familiar rat: reversed the deficit in social preference
[2]; 2, 20 and 100 mg/kg, male and female VPA rats
  short-term memory deficit, discrimination index (FIG. 2C): completely and significantly reversed
[2]; vehicle-treated (non VPA) rats
  recognition memory per se: without affecting per se recognition memory
[3]
  latency to fall, rotarod (FIG. 12): reduced latency to fall
[4]; CBDV 20 mg/kg
  time spent avoiding the other rat (FIG. 18C): reduce the amount of time
  time spent following the other rat (FIG. 18B): increased the amount of time
[4]; CBDV 10 and 20 mg/kg
  time spent sniffing the other rat (FIG. 18A): significantly increased
[4]; CBDV acute i.p.
  PCP effects on social interaction (sniffing, following, avoiding) (FIG. 18): reverse these effects in a statistically significant manner
